Measurements taken from US11324798B2, “Materials and methods for treatment of inflammation” (CYTOGEL PHARMA, LLC, priority 2010, dated 2022).
“And” between values parts separate entries of the source, which are not always exact repeats. Identical values can stand only once.

Experiments:
[1] = system: SP release from isolated rat tracheae; assay: Electrical field stimulation (EFS)-evoked release of SP from isolated rat tracheae, radioimmunoassay; type: cell-based; settings: for SP Release into the incubation medium / Absolute release of SP: individual experiments 1-5; for SP Release into the incubation medium, Mean / Absolute release of SP, Mean: mean of 5 experiments
Description: For the in vitro release experiments, a 10 mg/ml (14.62 mM; MW 684) stock solution of CYT-1010 was made in DMSO, which was further diluted with the oxygenated Krebs solution used in the organ bath: 5.5 μl of this CYT-1010 stock solution was added into 40 ml Krebs to make the highest applied 2 μM concentration of compound CYT-1010. Further dilutions to obtain the lower concentrations were prepared with Krebs solution.
The incubation media containing the respective CYT-1010 concentrations were administered in the stimulated and post-stimulated 8-min fractions.
Since even the highest, 2 μM, concentration of CYT-1010 solution contained negligible amount of DMSO, simple Krebs solution was used in the control experiments.
Rats were exsanguinated in deep anaesthesia (sodium thiobarbital, 50 mg/kg i.p.), then the whole trachea was removed and cleaned of fat and adhering connective tissues. Tracheae from two rats were placed into the same 1.8 ml organ bath to obtain sufficient amount of released peptide and perfused (1 ml/min) with pH-(7.2) controlled oxygenized Krebs solution for 60 minutes (equilibration period) at 37° C. temperature. After discontinuation of the flow, the solution was changed three times for eight minutes to produce pre-stimulated, stimulated, post-stimulated fractions.
Electrical field stimulation (40 V, 0.1 ms, 10 Hz for 120 s; 1200 pulses) was performed to elicit neurotransmitter release at the beginning of the second 8-minute period. Stimulation with 0.1 ms pulse width selectively activates very fast Na^+ channels, which are only present in the membrane of neural structures (Birmingham and Wilson, 1963; Coburn and Tomita 1973; Szolcsányi and Barthó, 1982); therefore, it excites nerve endings without influencing other excitable cells in the tracheae such as smooth muscle cells.
Krebs solution was used in the pre-stimulated fraction for determining the basal CGRP outflow. During the stimulated and post-stimulated fractions, the incubation medium contained the examined concentrations of CYT-1010 (10, 100, 500, 1000 and 2000 nM) in separate experiments, and only one concentration was applied to the same tracheae to avoid neuropeptide depletion. In each group, 5 experiments were performed in parallel in 5 perfusion systems to provide n=5 data per group (10 tracheae per group).
60 male Wistar rats (250-300 g) altogether were divided into 6 experimental groups: Group 1: controls (n=10); Group 2: 10 nM CYT-1010 (n=10); Group 3: 100 nM CYT-1010 (n=10); Group 4: 500 nM CYT-1010 (n=10); Group 5: 1000 nM CYT-1010 (n=10); and Group 6: 2000 nM CYT-1010 (n=10). The total study was performed on three experimental days, two groups every occasion.
Calcitonin gene-related peptide (CGRP) and substance P (SP) concentrations were determined from 400-400 μl samples of organ fluid of the preparations by means of radioimmunoassay methods described in Nemeth et al., 1996, 1998, 1999, 2006; Helyes et al., 1997, 2001, 2006; Borzsei et al., 2008). Each of these publications is incorporated herein by reference in its entirety.
The released amount of the peptides CGRP and SP was calculated as fmol peptide per mg wet tissue (trachea). The absolute release in response to EFS in each experiment was calculated by adding peptide release in the second and third 8-min fractions and then taking off the basal release measured in the first (pre-stimulated) fraction. The detection limits of the RIA assays were 0.2 fmol/tube and 2 fmol/tube for CGRP and SP, respectively.

[2] = Appearance of CYT-1010 preparations in 20% HPCD; type: physicochemical
Description: For the in vivo rat and mouse experiments, 5.5 ml of the 1 mg/ml stock solution of CYT-1010 was prepared freshly every experimental day with 20% HPCD dissolved in sterile distilled water. […] The vehicle was 20% HPCD dissolved in sterile distilled water. Further dilutions of the compound for the smaller administered doses were made with this vehicle, the 500 μg/ml and 100 μg/ml concentrations looked opalescent and the lower concentrations were clear. In rats 0.1 ml/100 g, in mice 0.1 ml/10 g volumes were administered i.v. 10 min before the induction of the inflammation.
Stock solution of the 100 μg/ml concentration of CYT-1010 (5.5 ml) was prepared fresh every experimental day with 20% hydroxypropyl-βcyclodextrin (HPCD) dissolved in sterile distilled water, shaken properly and sonicated. The vehicle was 20% HPCD dissolved in sterile distilled water. Further dilutions of the compound for the smaller administered doses were made with this vehicle. The applied concentrations were filtered through a 0.2 μm sterile teflon filter. […] The lower concentrations looked clear immediately. Non-filtered solutions were administered in the same concentrations in the parallel groups for comparison. Three doses of both the filtered and non-filtered CYT-1010 solutions (1, 10 and 100 μg/kg; 0.1 ml/10 g from the 0.1, 1 and 10 μg/ml solutions) were administered i.v. 5 min before the induction of the inflammation. Animals of the control group were treated with the same volume of the HPCD after or without the same filtration procedure.

NC(Cc1ccc(O)cc1)C(=O)NC1CCCCNC(=O)C(Cc2ccccc2)NC(=O)C(Cc2c[nH]c3ccccc23)NC1=O [CYT-1010, H-Tyr-c-[D-Lys-Trp-Phe]]
Inhibition of EFS-evoked SP outflow ([1]; 500 nM, 0.5 µM): 64.3% and 64% | Inhibition of EFS-evoked SP outflow ([1]; 1000 nM (maximal inhibition), 1 µM): 71.8% and 72% | SP release, % increase above baseline ([1]; 1 microM, after stimulation): 16.32% | SP Release into the incubation medium ([1]; 1 microM, after stimulation (post-stimulated fraction)): 1.663 fmol/mg wet tissue and 1.966 fmol/mg wet tissue and 1.892 fmol/mg wet tissue and 1.551 fmol/mg wet tissue and 1.397 fmol/mg wet tissue | SP Release into the incubation medium, Mean ([1]; 1 microM, after stimulation): 1.694 fmol/mg wet tissue | SP release, % increase above baseline ([1]; 1 microM, before stimulation): 0.00% | SP Release into the incubation medium ([1]; 1 microM, before stimulation (pre-stimulated fraction)): 1.398 fmol/mg wet tissue and 1.806 fmol/mg wet tissue and 1.860 fmol/mg wet tissue and 1.412 fmol/mg wet tissue and 0.805 fmol/mg wet tissue | SP Release into the incubation medium, Mean ([1]; 1 microM, before stimulation): 1.456 fmol/mg wet tissue | SP release, % increase above baseline ([1]; 1 microM, during stimulation): 13.32% | SP Release into the incubation medium ([1]; 1 microM, during stimulation (stimulated fraction)): 1.558 fmol/mg wet tissue and 1.948 fmol/mg wet tissue and 1.992 fmol/mg wet tissue and 1.422 fmol/mg wet tissue and 1.331 fmol/mg wet tissue | SP Release into the incubation medium, Mean ([1]; 1 microM, during stimulation): 1.650 fmol/mg wet tissue | Absolute release of SP ([1]; 1 microM): 0.425 fmol/mg wet tissue and 0.302 fmol/mg wet tissue and 0.164 fmol/mg wet tissue and 0.149 fmol/mg wet tissue and 1.118 fmol/mg wet tissue | Absolute release of SP, Mean ([1]; 1 microM): 0.432 fmol/mg wet tissue | SP release, % increase above baseline ([1]; 2 microM, after stimulation): 6.72% | SP Release into the incubation medium ([1]; 2 microM, after stimulation (post-stimulated fraction)): 2.348 fmol/mg wet tissue and 1.531 fmol/mg wet tissue and 2.246 fmol/mg wet tissue and 1.543 fmol/mg wet tissue and 1.944 fmol/mg wet tissue | SP Release into the incubation medium, Mean ([1]; 2 microM, after stimulation): 1.922 fmol/mg wet tissue | SP release, % increase above baseline ([1]; 2 microM, before stimulation): 0.00% | SP Release into the incubation medium ([1]; 2 microM, before stimulation (pre-stimulated fraction)): 2.406 fmol/mg wet tissue and 1.582 fmol/mg wet tissue and 2.020 fmol/mg wet tissue and 1.132 fmol/mg wet tissue and 1.867 fmol/mg wet tissue | SP Release into the incubation medium, Mean ([1]; 2 microM, before stimulation): 1.801 fmol/mg wet tissue | SP release, % increase above baseline ([1]; 2 microM, during stimulation): 56.23% | SP Release into the incubation medium ([1]; 2 microM, during stimulation (stimulated fraction)): 3.130 fmol/mg wet tissue and 2.398 fmol/mg wet tissue and 2.334 fmol/mg wet tissue and 2.078 fmol/mg wet tissue and 4.132 fmol/mg wet tissue | SP Release into the incubation medium, Mean ([1]; 2 microM, during stimulation): 2.814 fmol/mg wet tissue | Absolute release of SP ([1]; 2 microM): 0.666 fmol/mg wet tissue and 0.765 fmol/mg wet tissue and 0.540 fmol/mg wet tissue and 1.357 fmol/mg wet tissue and 2.342 fmol/mg wet tissue | Absolute release of SP, Mean ([1]; 2 microM): 1.134 fmol/mg wet tissue | Effect on stimulation-evoked SP release ([1]; 10-2000 nM added to the second and third fractions): significantly inhibited | EC50 ([1]; sigmoidal concentration-response curve, non-linear least square fit, 10-2000 nM, read-out: EC50 for inhibition of electrically-evoked SP release): 34 nM | Appearance of preparation ([2]; 100 μg/ml in 20% HPCD, directly after preparation (Example 4)): opalescent | Appearance of preparation ([2]; 100 μg/ml in 20% HPCD, on standing at 4° C. (Example 4)): cleared up 1 hour later | Appearance of preparation ([2]; 500 μg/ml and 100 μg/ml in 20% HPCD): opalescent | Appearance of preparation ([2]; 1 mg/ml stock in 20% HPCD in sterile distilled water): milky white micro-suspension | Appearance of preparation ([2]; lower concentrations (below 100 μg/ml) in 20% HPCD): clear
